Our source for the IC50 values is patent US11767323B2, “Tricyclic pyridone compounds as JAK2 V617F inhibitors” (Incyte Corporation, priority 2020, dated 2023).

Where only a bound is given, the exact number is not on record here.

Assay [1] addresses pseudo-kinase domain (JH2, amino-acids 536-812) of human Wild Type JAK2 (Homo sapiens (Human), UniProt O60674, F794H/W659A/W777A). Nature of the assay: JAK2 LanthaScreen JH2-WT Binding Assay. To be noted: JAK2 JH2-WT 0.145 nM, 50 nM tracer, 1 hour at 25° C.; read-out: JH2 BIND WT IC50. The protocol: Example B. JAK2 LanthaScreen JH2-WT Binding Assay
(§1) JAK2 JH2-WT binding assay utilizes pseudo-kinase domain (JH2, amino-acids 536-812 with 3 surface mutations W659A, W777A, F794H) of human Wild Type JAK2 expressed as C-terminal His-Avi-tagged, biotinylated protein in a baculovirus expression system (BPS Bioscience, Catalog #79463). The assay was conducted in black 384-well polystyrene plates in a final reaction volume of 20 μL. JAK2 JH2-WT (0.145 nM) was incubated with compounds (100 nL serially diluted in DMSO) in the presence of 50 nM Fluorescent JAK2-JH2 Tracer (MedChem Express Catalog #HY-102055) and 0.25 nM Streptavidin-Tb cryptate (Cisbio Part #610SATLB) in assay buffer (50 mM Tris, pH=7.5, 10 mM MgCl2, 0.01% Brij-35, 0.1% BSA, 1 mM EGTA, 5% Glycerol and 5 mM DTT). Non-specific binding was accessed in the presence of 2 mM ATP. After incubation for 1 hour at 25° C., LanthaScreen signals were read on a PHERAstar FS plate reader (BMG LAB TECH). Data was analyzed with IDBS XLfit and GraphPad Prism 5.0 software using a four parameter dose response curve to determine IC50 for each compound.
(In general: In TR-FRET formats the signal depends on donor and acceptor labels being close together.)

Assay [2] concerns the target catalytic domain (JH1, amino acids 826-1132) of human JAK2 (Homo sapiens (Human), UniProt O60674). The assay can be described thus: JAK2 LanthaScreen JH1 Binding Assay. To be noted: JAK2 JH1 1.5 nM, 50 nM tracer, 2 hours at 25° C.; read-out: JH1 BIND IC50. How it is done: Example A. JAK2 LanthaScreen JH1 Binding Assay
JAK2 JH1 binding assay utilizes catalytic domain (JH1, amino acids 826-1132) of human JAK2 expressed as N-terminal FLAG-tagged, biotinylated protein in a baculovirus expression system (Carna Biosciences, Product #08-445-20N). The assay was conducted in black 384-well polystyrene plates in a final reaction volume of 20 μL. JAK2 JH1 (1.5 nM) was incubated with compounds (100 nL serially diluted in DMSO) in the presence of 50 nM Fluorescent JAK2-JH1 Tracer and 0.5 nM Streptavidin-Tb cryptate (Cisbio Part #610SATLB) in assay buffer (50 mM Tris, pH=7.5, 10 mM MgCl2, 0.01% Brij-35, 0.1% BSA, 1 mM EGTA, 5% Glycerol and 5 mM DTT). Non-specific binding was accessed in the presence of 2 mM ATP. After incubation for 2 hours at 25° C., LanthaScreen signals were read on a PHERAstar FS plate reader (BMG LABTECH). Data was analyzed with IDBS XLfit and GraphPad Prism 5.0 software using a four parameter dose response curve to determine IC50 for each compound.

Assay [3] deals with catalytic domain (JH1, amino acids 808-1132) of human JAK2 (Homo sapiens (Human), UniProt O60674). Nature of the assay: JAK2 HTRF Enzyme Activity Assay. The class given is biochemical. The note with it: JAK2 0.015 nM, ATP (30 μM or 1 mM), 60 minutes at 25° C. The protocol:
Example D. JAK2 HTRF Enzyme Activity Assay
JAK2 enzyme activity assays utilize catalytic domain (JH1, amino acids 808-1132) of human JAK2 expressed as N-terminal His-tagged protein in a baculovirus expression system (BPS Bioscience, Catalog #40450). The assays was conducted in black 384-well polystyrene plates in a final reaction volume of 20 μL. JAK2 (0.015 nM) was incubated with compounds (100 nL serially diluted in DMSO) in the presence of ATP (30 μM or 1 mM) and 500 nM Biotin-labeled EQEDEPEGDYFEWLE (SEQ ID NO.: 1) peptide (BioSource International, custom synthesis) in assay buffer (50 mM Tris, pH=7.5, 10 mM MgCl2, 0.01% Brij-35, 0.1% BSA, 1 mM EGTA, 5% Glycerol and 5 mM DTT) for 60 minutes at 25° C. The reactions were stopped by the addition of 10 μL of detection buffer (50 mM Tris, pH 7.8, 0.5 mg/mL BSA, 150 mM NaCl), supplemented with EDTA, LANCE Eu-W1024 anti-phosphotyrosine (PY20), (PerkinElmer, Catalog #AD0067) and Streptavidin SureLight APC (PerkinElmer Catalog #CR130-100), for a final concentration of 15 mM, 1.5 nM and 75 nM, respectively. HTRF signals were read after 30 minutes incubation at room temperature on a PHERAstar FS plate reader (BMG LAB TECH). Data was analyzed with IDBS XLfit and GraphPad Prism 5.0 software using a four parameter dose response curve to determine IC50 for each compound.

In assay [4] the target is pseudo-kinase domain (JH2, amino-acids 536-812) of human V617F mutant JAK2 (Homo sapiens (Human), UniProt O60674, F794H/V617F/W659A/W777A). The assay can be described thus: JAK2 LanthaScreen JH2-V617F Binding Assay. The note with it: JAK2 JH2-V617F 0.26 nM, 50 nM tracer, 1 hour at 25° C.; read-out: JH2 BIND V617F IC50. The protocol:
Example C. JAK2 LanthaScreen JH2-V617F Binding Assay
as §1, with “JH2-V617F” for “JH2-WT”, “V617F mutant” for “Wild Type”, “#79498).” for “#79463).”, “JH2-V617F (0.26” for “JH2-WT (0.145”, “LABTECH).” for “LAB TECH).”

Chain of catalytic domain (JH1, amino acids 826-1132) of human JAK2 (O60674 826-1132): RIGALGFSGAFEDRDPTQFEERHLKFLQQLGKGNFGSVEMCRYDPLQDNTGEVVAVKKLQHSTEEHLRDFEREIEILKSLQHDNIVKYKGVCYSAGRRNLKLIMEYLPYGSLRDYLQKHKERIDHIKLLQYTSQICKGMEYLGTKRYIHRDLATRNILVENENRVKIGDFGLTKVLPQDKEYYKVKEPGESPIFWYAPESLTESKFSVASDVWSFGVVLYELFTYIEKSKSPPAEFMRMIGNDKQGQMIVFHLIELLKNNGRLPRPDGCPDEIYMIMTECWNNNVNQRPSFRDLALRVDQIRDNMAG
Chain of catalytic domain (JH1, amino acids 808-1132) of human JAK2 (O60674 808-1132): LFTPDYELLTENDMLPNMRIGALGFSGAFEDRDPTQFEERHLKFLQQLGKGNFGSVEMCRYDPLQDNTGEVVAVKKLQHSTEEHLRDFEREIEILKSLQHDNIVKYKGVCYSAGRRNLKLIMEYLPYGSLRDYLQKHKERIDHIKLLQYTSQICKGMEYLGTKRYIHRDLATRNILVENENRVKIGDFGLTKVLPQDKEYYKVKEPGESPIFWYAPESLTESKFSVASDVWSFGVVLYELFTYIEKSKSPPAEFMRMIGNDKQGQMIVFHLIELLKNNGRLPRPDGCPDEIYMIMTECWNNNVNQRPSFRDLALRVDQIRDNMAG
Chain of pseudo-kinase domain (JH2, amino-acids 536-812) of human V617F mutant JAK2 (O60674 536-812 V617F/W659A/W777A/F794H): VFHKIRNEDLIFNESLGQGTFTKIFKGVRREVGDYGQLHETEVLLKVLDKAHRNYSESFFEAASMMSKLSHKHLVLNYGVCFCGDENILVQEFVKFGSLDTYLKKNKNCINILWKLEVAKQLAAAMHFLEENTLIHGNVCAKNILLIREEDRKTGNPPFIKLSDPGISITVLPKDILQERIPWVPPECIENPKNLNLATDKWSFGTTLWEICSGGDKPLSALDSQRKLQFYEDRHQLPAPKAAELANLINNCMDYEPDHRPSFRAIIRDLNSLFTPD
Chain of pseudo-kinase domain (JH2, amino-acids 536-812) of human Wild Type JAK2 (O60674 536-812 W659A/W777A/F794H): as the sequence (O60674 536-812 V617F/W659A/W777A/F794H) above, with F82V counted along it

One may read the IC50 as the concentration that gives 50% inhibition. Turning to `Cc1c(-c2cccc(Cl)c2)c(=O)n(C)c2cnc3[nH]c(-c4ccc(CN5CCC(S(C)(=O)=O)CC5)cc4)cc3c12` [Example 11, 8-(3-Chlorophenyl)-6,9-dimethyl-2-(4-((4-(methylsulfonyl)piperidin-1-yl)methyl)phenyl)-3,6-dihydro-7H-pyrrolo[3,2-f][1,7]naphthyridin-7-one], the IC50 in assay [1], in assay [2], in assay [3] and in assay [4] was not above 100 nM each time.

As to `Cc1cc(-c2c(-c3ccc(-c4cnn(C)c4C)cc3)c3c4cc(-c5cnn(C)c5)[nH]c4ncc3n(C)c2=O)on1` [Example 31, 9-(4-(1,5-Dimethyl-1H-pyrazol-4-yl)phenyl)-6-methyl-2-(1-methyl-1H-pyrazol-4-yl)-8-(3-methylisoxazol-5-yl)-3,6-dihydro-7H-pyrrolo[3,2-f][1,7]naphthyridin-7-one], the concentration for half-maximal inhibition (IC50) in assay [1] was not above 100 nM; in assay [2] it was 500 to 1000 nM; in assay [3], 500 to 1000 nM; in assay [4], not above 100 nM.

Turning to `CC(=O)N1CC[C@H](c2cc3c4c(-c5ccccc5)c(-c5ccc(CN6CCC(S(C)(=O)=O)CC6)cc5)[nH]c4ncc3n(C)c2=O)C1` [Example 37, (R)-8-(1-acetylpyrrolidin-3-yl)-6-methyl-2-(4-((4-(methylsulfonyl)piperidin-1-yl)methyl)phenyl)-1-phenyl-3,6-dihydro-7/7-pyrrolo[3,2-f][1,7]naphthyridin-7-one], the IC50 in assay [1], in assay [2], in assay [3] and in assay [4] was not above 100 nM each time.

In the case of `Cc1c(-c2ccc(C(=O)O)cc2)c(=O)n(C)c2cnc3[nH]c(-c4ccc(CN5CCC(S(C)(=O)=O)CC5)cc4)cc3c12` [Example 8, 4-(6,9-Dimethyl-2-(4-((4-(methylsulfonyl)piperidin-1-yl)methyl)phenyl)-7-oxo-6,7-dihydro-3H-pyrrolo[3,2-f][1,7]naphthyridin-8-yl)benzoic acid], the IC50 was not above 100 nM in assay [1], 100 to 500 nM in assay [2], 100 to 500 nM in assay [3] and not above 100 nM in assay [4].

Consider `CN(C)C(=O)c1ccc(-c2c(-c3cnn(C)c3)[nH]c3ncc4c(cc(Nc5ccc(Cc6nnn[nH]6)cc5)c(=O)n4C)c23)cc1` [Example 35, 4-(8-((4-((1H-tetrazol-5-yl)methyl)phenyl)amino)-6-methyl-2-(1-methyl-1H-pyrazol-4-yl)-7-oxo-6,7-dihydro-3H-pyrrolo[3,2-f][1,7]naphthyridin-1-yl)-N,N-dimethylbenzamide], for which the half-inhibitory concentration (IC50) in assay [1], in assay [2], in assay [3] and in assay [4] was not above 100 nM in each case.

For `Cc1c(-c2ccc(C(=O)O)cc2)c(=O)[nH]c2cnc3[nH]c(-c4ccc(CN5CCC(S(C)(=O)=O)CC5)cc4)cc3c12` [Example 6, 4-(9-Methyl-2-(4-((4-(methylsulfonyl)piperidin-1-yl)methyl)phenyl)-7-oxo-6,7-dihydro-3H-pyrrolo[3,2-f][1,7]naphthyridin-8-yl)benzoic acid], the IC50 in assay [1] is not above 100 nM; in assay [2] it was more than 10000 nM; in assay [3] it was more than 10000 nM; in assay [4], not above 100 nM.

For `CCc1c(-c2ccc(C(=O)O)cc2)c(=O)n(C)c2cnc3[nH]c(-c4ccc(CN5CCC(S(C)(=O)=O)CC5)cc4)cc3c12` [Example 16, 4-(9-Ethyl-6-methyl-2-(4-((4-(methylsulfonyl)piperidin-1-yl)methyl)phenyl)-7-oxo-6,7-dihydro-3H-pyrrolo[3,2-f][1,7]naphthyridin-8-yl)benzoic acid], the concentration for half-maximal inhibition (IC50) is not above 100 nM in assay [1], 100 to 500 nM in assay [2], 100 to 500 nM in assay [3] and not above 100 nM in assay [4].

In the case of `CN(C)C(=O)c1ccc(-c2c(-c3cnn(C)c3)[nH]c3ncc4c(cc(Nc5cccc(-c6nnn[nH]6)c5)c(=O)n4C)c23)cc1` [Example 34, 4-(8-((3-(1H-tetrazol-5-yl)phenyl)amino)-6-methyl-2-(1-methyl-1H-pyrazol-4-yl)-7-oxo-6,7-dihydro-3H-pyrrolo[3,2-f][1,7]naphthyridin-1-yl)-N,N-dimethylbenzamide], the IC50 in assay [1] is not above 100 nM; in assay [2], 100 to 500 nM; in assay [3], 100 to 500 nM; in assay [4], not above 100 nM.

Take `Cc1c(-c2ccc3c(c2)OCCO3)c(=O)[nH]c2cnc3[nH]c(-c4ccc(CN5CCC(S(C)(=O)=O)CC5)cc4)cc3c12` [Example 19, 8-(2,3-Dihydrobenzo[6][1,4]dioxin-6-yl)-9-methyl-2-(4-((4-(methylsulfonyl)piperidin-1-yl)methyl)phenyl)-3,6-dihydro-7H-pyrrolo[3,2-f][1,7]naphthyridin-7-one]: the IC50 in assay [1], in assay [2], in assay [3] and in assay [4] was 1000 to 10000 nM throughout.

On to `Cc1cc(-c2c(C3CCN(S(C)(=O)=O)C3)c3c4cc(-c5cnn(C)c5)[nH]c4ncc3n(C)c2=O)on1` (stereo not shown) [Example 33, 6-Methyl-2-(1-methyl-1H-pyrazol-4-yl)-8-(3-methylisoxazol-5-yl)-9-(1-(methylsulfonyl)pyrrolidin-3-yl)-3,6-dihydro-7H-pyrrolo[3,2-f][1,7]naphthyridin-7-one], for which the IC50 in assay [1] is not above 100 nM; in assay [2] it was 100 to 500 nM; in assay [3] it was 100 to 500 nM; in assay [4] it was not above 100 nM.
